From patent publication US9157121B2, “Method of treatment based on polymorphisms of the KCNQ1 gene” (Vanda Pharmaceuticals, Inc., priority 2009, dated 2015)
Where “and” joins values, the source holds several entries; their conditions need not be identical. Equal values may be shown once.

Experiments:
QTc interval [1] = settings: cited from earlier work; for QTc prolongation: comparison of several antipsychotics
QTc interval [2] = experiment: QTcF change following iloperidone or ziprasidone administration, by KCNQ1 and CYP2D6 genotype; assay type: in vivo, human; settings: for QTcFmax Change: change from baseline
Protocol: The DNA variants in KCNQ1 noted above were examined for correlation with iloperidone-induced QT prolongation.
Individuals from an earlier study of CYP2D6 genotypes and a predisposition to QT prolongation were genotyped at each of the KCNQ1 SNPs above. 22 individuals had been given a dose of 8 mg of iloperidone b.i.d., 30 had been given 12 mg b.i.d., and 22 had been given 24 mg q.d.
The results were similar when ziprasidone was administered at a dosage of 80 mg b.i.d. The QTc changes for each genotype are shown below in Tables 4 and 5.
Tables 10 and 11 below show CYP2D6 metabolizer status against QTcFmax change from baseline for individuals having GG and non-GG genotypes, respectively, at the KCNQ1 79764 position SNP.
In order to assess the CYP2D6 component to such prolongation, QTc change was separately compared to the CYP2D6G1846A and CYP2D6C100T polymorphisms.
Tables 14 and 15 below show QTc changes in individuals grouped according to their KCNQ1 79764, CYP2D6G1846A, and CYP2D6C100T genotypes. […] Similarly, individuals who were GG at KCNQ1 79764 and had one or two mutant alleles at the CYP2D6 loci (i.e., AG or AA at CYP2D6G1846A and CT or TT at CYP2D6C100T) experienced the greatest QT prolongation.

QT interval = experiment: QT prolongation following iloperidone in 174 individuals genotyped at SNP_A-2279707 (rs179407); assay type: in vivo, human; settings: oral 24 mg/day B.I.D. for two weeks; for High QT, + test (number of individuals) / Low QT, + test (number of individuals): rs179407 genotype TT; for High QT, − test (number of individuals) / Low QT, − test (number of individuals): rs179407 genotype not TT; for Odds Ratio: rs179407 TT versus not TT
QTc interval [3] = settings: cited from earlier work
CYP2D6 = CYP2D6 (Homo sapiens, UniProt P10635); settings: cited from earlier work
Chain of CYP2D6 (P10635 whole entry): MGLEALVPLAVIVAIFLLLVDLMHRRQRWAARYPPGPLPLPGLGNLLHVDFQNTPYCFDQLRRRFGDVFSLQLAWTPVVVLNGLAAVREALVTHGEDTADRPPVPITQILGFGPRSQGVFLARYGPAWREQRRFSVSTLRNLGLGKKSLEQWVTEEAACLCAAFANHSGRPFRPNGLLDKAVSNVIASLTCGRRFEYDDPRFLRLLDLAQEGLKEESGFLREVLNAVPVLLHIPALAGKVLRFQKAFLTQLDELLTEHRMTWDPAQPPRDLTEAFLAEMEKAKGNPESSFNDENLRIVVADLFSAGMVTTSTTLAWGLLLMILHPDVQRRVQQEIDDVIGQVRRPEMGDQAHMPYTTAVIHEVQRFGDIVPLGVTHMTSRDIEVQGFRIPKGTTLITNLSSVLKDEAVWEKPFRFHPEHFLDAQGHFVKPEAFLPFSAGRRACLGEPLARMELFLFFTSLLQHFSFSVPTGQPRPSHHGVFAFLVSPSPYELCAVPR

Question: Which “increase in QTc with metabolic inhibition” value (QTc interval [1]; with metabolic inhibitors of the CYP450 isoenzyme responsible for the metabolism of each drug) does the source give for `O=C(CCCN1CCC(O)(c2ccc(Cl)cc2)CC1)c1ccc(F)cc1` [haloperidol] here?
Answer: doubling of QTc

Question: For `O=C1Cc2cc(CCN3CCN(c4nsc5ccccc45)CC3)c(Cl)cc2N1` [Ziprasidone, ziprasidone], which QTcF change (QTc interval [2]; ziprasidone 80 mg b.i.d., KCNQ1 79764 SNP genotype CC) is on record?
Answer: 8.30 ms

Question: What about the QTcF change (QTc interval [2]; ziprasidone 80 mg b.i.d., KCNQ1 79764 SNP genotype CG) of the same compound?
Answer: 6.19 ms

Question: What about the QTcF change (QTc interval [2]; ziprasidone 80 mg b.i.d., KCNQ1 79764 SNP genotype GG) of the same compound?
Answer: 15.32 ms

Question: And the QTcF change (QTc interval [2]; ziprasidone 80 mg b.i.d., KCNQ1 79764 SNP genotype Non-GG)?
Answer: 6.75 ms

Question: And the QTc prolongation (QTc interval [1])?
Answer: highest degree of QTc prolongation, followed by ziprasidone

Question: Which “QTcFmax Change” value (QTc interval [2]; KCNQ1 79764 genotype GG, CYP2D6 metabolizer status Extensive) does the source give for `COc1cc(C(C)=O)ccc1OCCCN1CCC(c2noc3cc(F)ccc23)CC1` [Iloperidone] here?
Answer: 16.4 ms

Question: What about the “QTcFmax Change” value (QTc interval [2]; KCNQ1 79764 genotype GG, CYP2D6 metabolizer status Intermediate) of the same compound?
Answer: 18.1 ms

Question: And the “QTcFmax Change” value (QTc interval [2]; KCNQ1 79764 genotype GG, CYP2D6 metabolizer status Poor)?
Answer: 33.6 ms

Question: And the “QTcFmax Change” value (QTc interval [2]; KCNQ1 79764 genotype Non-GG, CYP2D6 metabolizer status Extensive)?
Answer: 8.3 ms

Question: What about the “QTcFmax Change” value (QTc interval [2]; KCNQ1 79764 genotype Non-GG, CYP2D6 metabolizer status Intermediate) of the same compound?
Answer: 3.1 ms

Question: What about the “QTcFmax Change” value (QTc interval [2]; KCNQ1 79764 genotype Non-GG, CYP2D6 metabolizer status Poor) of the same compound?
Answer: 24.6 ms

Question: And the QTcF change (QTc interval [2]; iloperidone 8 mg b.i.d., 12 mg b.i.d. or 24 mg q.d., KCNQ1 79764 SNP genotype CC)?
Answer: 10.38 ms

Question: What about the QTcF change (QTc interval [2]; iloperidone 8 mg b.i.d., 12 mg b.i.d. or 24 mg q.d., KCNQ1 79764 SNP genotype CG) of the same compound?
Answer: 6.80 ms

Question: What about the QTcF change (QTc interval [2]; iloperidone 8 mg b.i.d., 12 mg b.i.d. or 24 mg q.d., KCNQ1 79764 SNP genotype GG) of the same compound?
Answer: 17.58 ms

Question: What about the QTcF change (QTc interval [2]; iloperidone 8 mg b.i.d., 12 mg b.i.d. or 24 mg q.d., KCNQ1 79764 SNP genotype Non-GG) of the same compound?
Answer: 7.83 ms

Question: And the QTcF change (QTc interval [2]; iloperidone, CYP2D6C100T genotype CC)?
Answer: 10.8 ms

Question: And the QTcF change (QTc interval [2]; iloperidone, CYP2D6C100T genotype CT)?
Answer: 16.9 ms

Question: And the QTcF change (QTc interval [2]; iloperidone, CYP2D6C100T genotype Non-CC)?
Answer: 19.2 ms

Question: What about the QTcF change (QTc interval [2]; iloperidone, CYP2D6C100T genotype TT) of the same compound?
Answer: 31.3 ms

Question: And the QTcF change (QTc interval [2]; iloperidone, CYP2D6G1846A genotype AA)?
Answer: 41.6 ms

Question: And the QTcF change (QTc interval [2]; iloperidone, CYP2D6G1846A genotype AG)?
Answer: 15.9 ms

Question: What about the QTcF change (QTc interval [2]; iloperidone, CYP2D6G1846A genotype GG) of the same compound?
Answer: 11.1 ms

Question: What about the QTcF change (QTc interval [2]; iloperidone, CYP2D6G1846A genotype Non-GG) of the same compound?
Answer: 18.5 ms

Question: What about the QTcF change (QTc interval [2]; iloperidone, KCNQ1 78927 position SNP genotype AA) of the same compound?
Answer: 7.21 ms

Question: And the QTcF change (QTc interval [2]; iloperidone, KCNQ1 78927 position SNP genotype AC)?
Answer: 9.19 ms

Question: And the QTcF change (QTc interval [2]; iloperidone, KCNQ1 78927 position SNP genotype CC)?
Answer: 14.08 ms

Question: And the QTcF change (QTc interval [2]; iloperidone, KCNQ1 78927 position SNP genotype Non-CC)?
Answer: 6.46 ms

Question: And the QTcF change (QTc interval [2]; iloperidone, KCNQ1 79764 GG and CYP2D6C100T CC)?
Answer: 19.2 (n = 15) msec

Question: And the QTcF change (QTc interval [2]; iloperidone, KCNQ1 79764 GG and CYP2D6C100T non-CC)?
Answer: 23.5 (n = 10) msec

Question: And the QTcF change (QTc interval [2]; iloperidone, KCNQ1 79764 GG and CYP2D6G1846A GG)?
Answer: 19.5 (n = 15) msec

Question: What about the QTcF change (QTc interval [2]; iloperidone, KCNQ1 79764 GG and CYP2D6G1846A non-GG) of the same compound?
Answer: 25.5 (n = 10) msec

Question: And the “average QTc change, GG genotype relative to non-GG genotype” value (QTc interval [2]; iloperidone, KCNQ1 79764 SNP)?
Answer: more than twice the change in individuals with a non-GG genotype

Question: And the QTcF change (QTc interval [2]; iloperidone, KCNQ1 79764 non-GG and CYP2D6C100T CC)?
Answer: 7.4 (n = 35) msec

Question: What about the QTcF change (QTc interval [2]; iloperidone, KCNQ1 79764 non-GG and CYP2D6C100T non-CC) of the same compound?
Answer: 12.6 (n = 7) msec

Question: And the QTcF change (QTc interval [2]; iloperidone, KCNQ1 79764 non-GG and CYP2D6G1846A GG)?
Answer: 7.6 (n = 34) msec

Question: And the QTcF change (QTc interval [2]; iloperidone, KCNQ1 79764 non-GG and CYP2D6G1846A non-GG)?
Answer: 9.6 (n = 6) msec

Question: What about the QTcF change (QTc interval [2]; iloperidone, KCNQ1 286414 position SNP genotype AA) of the same compound?
Answer: 12.50 ms and 12.51 ms

Question: What about the QTcF change (QTc interval [2]; iloperidone, KCNQ1 286414 position SNP genotype AG) of the same compound?
Answer: 3.15 ms

Question: And the QTcF change (QTc interval [2]; iloperidone, KCNQ1 286414 position SNP genotype GG)?
Answer: 10.34 ms

Question: And the QTcF change (QTc interval [2]; iloperidone, KCNQ1 286414 position SNP genotype Non-AA)?
Answer: 5.16 ms

Question: What about the “High QT, + test (number of individuals)” value (QT interval; threshold QT > 5 msec) of the same compound?
Answer: 102

Question: And the “Low QT, + test (number of individuals)” value (QT interval; threshold QT > 5 msec)?
Answer: 47

Question: And the “High QT, − test (number of individuals)” value (QT interval; threshold QT > 5 msec)?
Answer: 15

Question: And the “Low QT, − test (number of individuals)” value (QT interval; threshold QT > 5 msec)?
Answer: 19

Question: And the “Odds Ratio” value (QT interval; threshold QT > 5 msec)?
Answer: 2.749

Question: What about the “High QT, + test (number of individuals)” value (QT interval; threshold QT > 15 msec) of the same compound?
Answer: 64

Question: What about the “Low QT, + test (number of individuals)” value (QT interval; threshold QT > 15 msec) of the same compound?
Answer: 85

Question: And the “High QT, − test (number of individuals)” value (QT interval; threshold QT > 15 msec)?
Answer: 9

Question: What about the “Low QT, − test (number of individuals)” value (QT interval; threshold QT > 15 msec) of the same compound?
Answer: 25

Question: And the “Odds Ratio” value (QT interval; threshold QT > 15 msec)?
Answer: 2.092

Question: And the “High QT, + test (number of individuals)” value (QT interval; threshold QT > 30 msec)?
Answer: 26

Question: What about the “Low QT, + test (number of individuals)” value (QT interval; threshold QT > 30 msec) of the same compound?
Answer: 123

Question: And the “High QT, − test (number of individuals)” value (QT interval; threshold QT > 30 msec)?
Answer: 2

Question: And the “Low QT, − test (number of individuals)” value (QT interval; threshold QT > 30 msec)?
Answer: 32

Question: And the “Odds Ratio” value (QT interval; threshold QT > 30 msec)?
Answer: 3.382

Question: What about the “effect on the QTcF duration with metabolic inhibition” value (QTc interval [3]; adding an inhibitor of CYP2D6) of the same compound?
Answer: increases the effect of iloperidone on the QTcF duration

Question: What about the “effect on QTc duration” value (QTc interval [3]; in vivo) of the same compound?
Answer: some effects on QTc duration

Question: And the metabolizing enzyme (CYP2D6)?
Answer: metabolized by CYP2D6

Question: With `OCCOCCN1CCN(C2=Nc3ccccc3Sc3ccccc32)CC1` [Quetiapine] as the compound, how does the QTc prolongation (QTc interval [1]) read?
Answer: associated with a prolongation of the QTc interval

Question: For `Cc1cc2c(s1)Nc1ccccc1N=C2N1CCN(C)CC1` [olanzapine], which QTc prolongation (QTc interval [1]) is on record?
Answer: associated with a prolongation of the QTc interval

Question: For `Cc1nc2n(c(=O)c1CCN1CCC(c3noc4cc(F)ccc34)CC1)CCCC2` [risperidone], which QTc prolongation (QTc interval [1]) is on record?
Answer: associated with a prolongation of the QTc interval
